These results are taken from patent US20230203041A1, “ANTAGONISTS OF THE ADENOSINE A2A RECEPTOR” (AdoRx Therapeutics Limited, priority 2020, published 2023).

Assay [1] concerns the target T1, human Adenosine A2b receptor (Homo sapiens, UniProt P29275).
T1 construct: expressed in transfected cells; host or cells: CHO cell membranes
T1 sequence (P29275 1-332): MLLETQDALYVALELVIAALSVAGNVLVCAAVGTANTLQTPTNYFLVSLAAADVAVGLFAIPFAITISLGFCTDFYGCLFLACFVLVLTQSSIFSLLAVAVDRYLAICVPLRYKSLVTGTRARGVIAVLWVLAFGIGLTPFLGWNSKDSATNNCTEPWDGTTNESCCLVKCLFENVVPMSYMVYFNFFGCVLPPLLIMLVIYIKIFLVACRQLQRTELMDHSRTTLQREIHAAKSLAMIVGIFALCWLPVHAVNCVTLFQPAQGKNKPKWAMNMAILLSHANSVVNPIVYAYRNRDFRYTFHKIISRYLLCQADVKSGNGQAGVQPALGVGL
Put plainly: Adenosine receptor TR-FRET binding assay (CA200645 displacement), A2b. As to conditions: 30 nM CA200645, CHO cell membranes, 2 hours at room temperature. (Time-resolved FRET reads energy transfer from a long-lived donor to a nearby acceptor.)

For assay [2], the target named is T2, human Adenosine A3 receptor (Homo sapiens, UniProt P0DMS8).
T2 sequence (P0DMS8 1-318): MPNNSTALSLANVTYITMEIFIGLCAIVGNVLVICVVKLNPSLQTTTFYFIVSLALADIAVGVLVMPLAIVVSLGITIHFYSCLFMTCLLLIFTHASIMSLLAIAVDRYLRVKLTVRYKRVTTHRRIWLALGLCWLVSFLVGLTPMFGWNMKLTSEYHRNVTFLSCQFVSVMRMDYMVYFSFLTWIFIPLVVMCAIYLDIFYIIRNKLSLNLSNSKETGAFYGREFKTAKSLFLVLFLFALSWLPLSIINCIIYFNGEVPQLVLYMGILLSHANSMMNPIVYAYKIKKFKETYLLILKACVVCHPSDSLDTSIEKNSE
The assay can be described thus: Adenosine receptor TR-FRET binding assay (CA200645 displacement), A3.

Assay [3] addresses T3, human Adenosine A1 receptor (Homo sapiens, UniProt P30542).
T3 sequence (P30542 1-326): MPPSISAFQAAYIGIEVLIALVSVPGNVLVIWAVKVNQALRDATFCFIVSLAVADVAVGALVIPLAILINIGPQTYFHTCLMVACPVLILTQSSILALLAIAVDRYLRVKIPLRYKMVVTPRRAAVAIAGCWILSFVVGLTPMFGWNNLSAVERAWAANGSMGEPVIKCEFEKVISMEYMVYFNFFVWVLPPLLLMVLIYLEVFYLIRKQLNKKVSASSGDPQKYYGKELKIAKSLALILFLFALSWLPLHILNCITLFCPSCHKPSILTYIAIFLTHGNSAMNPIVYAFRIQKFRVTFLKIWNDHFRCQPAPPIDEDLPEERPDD
Put plainly: Adenosine receptor TR-FRET binding assay (CA200645 displacement), A1.

Assay [4] concerns the target T4, human Adenosine A2a receptor (Homo sapiens, UniProt P29274).
T4 construct: expressed in transfected cells; host or cells: CHO cell membranes
The assay can be described thus: Adenosine receptor TR-FRET binding assay (CA200645 displacement), A2a. As to conditions: 100 nM CA200645, CHO cell membranes, 2 hours at room temperature.

The test system of a further assay is human PBMCs. The assay can be described thus: CD3/CD28 stimulated IL-2 release NECA reversal assay in human PBMCs.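 Further: dose-response as % inhibition where 100% equals no-NECA control wells with CD3/CD28.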 It counts as cell-based. As to conditions: PBMC, CD3/CD28 antibody stimulated, 1 uM NECA, 24 hours, IL-2 in culture supernatant. Put shortly: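 PBMCs from citrated donor blood, 50,000 cells/well on plate-bound CD3 antibody (1 ug/ml), with 1 ug/ml CD28 antibody, 1 uM NECA and antagonist at 0.003-10 μM final. After 24 h at 37° C, supernatant IL-2 was measured by MSD immunoassay.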

Assay [5] concerns CD8+ T cells in human whole blood. Put plainly: Measurement of pCREB in CD8+ T cells in human whole blood. The format is cell-based. As to conditions: T-cell, 1 h; heparinised human whole blood, rolipram, 3 μM NECA, 60 min, phospho-CREB in CD8+ T cells by FACS. An outline of the steps: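 Heparinised human whole blood preincubated 20 min at 37 °C with serially diluted A2a antagonists plus rolipram, then stimulated 60 min with 3 μM NECA (final). After fixation and RBC lysis, permeabilized leukocytes stained for phospho-CREB and CD8; pCREB in CD8+ T cells read by flow cytometry.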
(In general: In flow cytometry, cells or beads pass a laser one at a time.)

T4 sequence (P29274 whole entry): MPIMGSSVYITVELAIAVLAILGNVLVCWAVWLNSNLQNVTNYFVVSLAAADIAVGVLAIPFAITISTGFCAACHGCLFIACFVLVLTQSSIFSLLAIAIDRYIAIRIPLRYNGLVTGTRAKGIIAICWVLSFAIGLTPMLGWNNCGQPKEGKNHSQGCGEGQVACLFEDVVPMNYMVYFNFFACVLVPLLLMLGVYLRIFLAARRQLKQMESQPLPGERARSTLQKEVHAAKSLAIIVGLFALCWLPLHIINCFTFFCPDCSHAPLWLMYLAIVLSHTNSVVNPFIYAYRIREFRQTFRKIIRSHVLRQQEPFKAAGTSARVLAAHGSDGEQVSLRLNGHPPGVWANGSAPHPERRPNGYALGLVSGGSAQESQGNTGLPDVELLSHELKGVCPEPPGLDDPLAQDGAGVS

Usually Ki stands for the equilibrium dissociation constant of an inhibitor or competing ligand from its target. As a reminder, the IC50 is the point on the concentration scale where inhibition reaches its midpoint. For `Cc1cc(-c2c(-c3cccc(C#N)c3)nn3ccc(C(=O)NCC(C)(O)CO)nc23)cc(C)n1` (stereo not drawn) [Example 92.1], the Ki was 4 nM in assay [1], > 1000 nM in assay [2], 222 nM in assay [3] and 0.5 nM in assay [4]. Moreover, the results for the IC50 (in the assay with human PBMCs; in assay [5]) were 14 nM and 110 nM, respectively.

For the compound `Cc1cc(-c2c(-c3cccc(C#N)c3)nn3ccc(C(=O)NC45CC(O)(C4)C5)nc23)cc(C)n1` [Example 92.2], the Ki in assay [1] is 25 nM; in assay [2] it was > 1000 nM; in assay [3] it was 324 nM; in assay [4], 1.6 nM. Moreover, the IC50 with human PBMCs came to 17 nM; in assay [5] it was 350 nM.

For `Cc1cc(-c2c(-c3cccc(C#N)c3)nn3ccc(C(=O)NCC4(O)COC4)nc23)cc(C)n1` [Example 92.3], the Ki in assay [1] is 7 nM; in assay [2] it was > 1000 nM; in assay [3], 212 nM; in assay [4] it was 2 nM. Moreover, the IC50 was determined as 11 nM in the assay on human PBMCs and 260 nM in assay [5].

Turning to `Cc1cc(-c2c(-c3cccc(C#N)c3)nn3ccc(C(=O)NCC4CCNC(=O)C4)nc23)cc(C)n1` (stereo not drawn) [Example 92.4], the Ki in assay [1] was 23 nM; in assay [2], > 1000 nM; in assay [3] it was 362 nM; in assay [4], 4.4 nM. In addition, the IC50 worked out at 33 nM with human PBMCs and 830 nM in assay [5].

For `Cc1cc(-c2c(-c3cccc(C#N)c3)nn3ccc(NC(=O)C(C)(C)O)nc23)cc(Cl)n1` [Example 94, N-[3-(2-Chloro-6-methyl-4-pyridyl)-2-(3-cyanophenyl)pyrazolo[1,5-a]pyrimidin-5-yl]-2-hydroxy-2-methyl-propanamide], the Ki is 3 nM in assay [1], > 1000 nM in assay [2], 124 nM in assay [3] and 1 nM in assay [4]. The IC50 in the assay on human PBMCs was 27 nM; in assay [5], 1720 nM.

`CC(=O)Nc1ccn2nc(-c3cccc(C#N)c3)c(-c3cc(C)nc(Cl)c3)c2n1` [Example 94.1, N-[3-(2-Chloro-6-methyl-4-pyridyl)-2-(3-cyanophenyl)pyrazolo[1,5-a]pyrimidin-5-yl]acetamide]: the Ki is 14 nM in assay [1], > 1000 nM in assay [2], 99 nM in assay [3] and 1.8 nM in assay [4]. Besides, the IC50 in the assay with human PBMCs was 26 nM; in assay [5], 750 nM.

On to `Cc1cc(-c2c(-c3cccc(C#N)c3)nn3ccc(NC(=O)CC(C)(C)O)nc23)cc(Cl)n1` [Example 94.2, N-[3-(2-chloro-6-methyl-4-pyridyl)-2-(3-cyanophenyl)pyrazolo[1,5-a]pyrimidin-5-yl]-3-hydroxy-3-methyl-butanamide], for which the Ki is 7 nM in assay [1], 2050 nM in assay [2], 81 nM in assay [3] and 1.2 nM in assay [4]. For the same compound, the IC50 came out at 20 nM in the assay with human PBMCs and 530 nM in assay [5].

In the case of `Cc1cc(-c2c(-c3cccc(C#N)c3)nn3ccc(NC(=O)CC(C)(C)O)nc23)cc(C)n1` [Example 94.4, N-[2-(3-Cyanophenyl)-3-(2,6-dimethyl-4-pyridyl)pyrazolo[1,5-a]pyrimidin-5-yl]-3-hydroxy-3-methyl-butanamide], the inhibition constant Ki in assay [1] was 13 nM; in assay [2], > 1000 nM; in assay [3] it was 79 nM; in assay [4], 1.7 nM. Further, the IC50 came out at 14 nM in the assay on human PBMCs and 150 nM in assay [5].

With `Cc1cc(-c2c(-c3cccc(C#N)c3)nn3ccc(NC(=O)C(C)(C)O)nc23)cc(C)n1` [Example 94.5, N-[2-(3-cyanophenyl)-3-(2,6-dimethyl-4-pyridyl)pyrazolo[1,5-a]pyrimidin-5-yl]-2-hydroxy-2-methyl-propanamide], the Ki is 20 nM in assay [1], > 1000 nM in assay [2], 145 nM in assay [3] and 3.7 nM in assay [4]. Further, the IC50 in the assay with human PBMCs worked out at 16 nM; in assay [5], 590 nM.

Take `Cc1cc(-c2c(-c3cccc(C#N)c3)nn3ccc(C(=O)NCCC(C)(C)N)nc23)cc(C)n1` [Example 96, N-(3-Amino-3-methyl-butyl)-2-(3-cyanophenyl)-3-(2,6-dimethyl-4-pyridyl)pyrazolo[1,5-a]pyrimidine-5-carboxamide]: the Ki in assay [1] is 7 nM; in assay [2], > 1000 nM; in assay [3], 143 nM; in assay [4], 0.5 nM. The IC50 in the assay on human PBMCs was determined as 10 nM; in assay [5], 360 nM.

On to `Cc1cc(-c2c(-c3cccc(C#N)c3)nn3ccc(C(=N)N)nc23)cc(C)n1` [Example 97, 2-(3-Cyanophenyl)-3-(2,6-dimethyl-4-pyridyl)pyrazolo[1,5-a]pyrimidine-5-carboxamidine], for which the Ki in assay [1] is 21 nM; in assay [2], > 1000 nM; in assay [3] it was 260 nM; in assay [4], 1.5 nM. In addition, the values for the IC50 (in the assay with human PBMCs; in assay [5]) were 38 nM and 580 nM, respectively.

Take `CC(=O)NC(C)(C)CNC(=O)c1ccn2nc(-c3cccc(C#N)c3)c(-c3cc(C)nc(Cl)c3)c2n1` [Example 98, N-(2-Acetamido-2-methyl-propyl)-3-(2-chloro-6-methyl-4-pyridyl)-2-(3-cyanophenyl)pyrazolo[1,5-a]pyrimidine-5-carboxamide]: the Ki in assay [1] worked out at 9 nM; in assay [2], 655 nM; in assay [3] it was 87 nM; in assay [4] it was 0.4 nM. For the same compound, the IC50 in the assay with human PBMCs came out at 3 nM; in assay [5] it was 360 nM.

For the compound `Cc1cc(-c2c(-c3cccc(C#N)c3C)nn3ccc(C(=O)NCC(C)(C)O)nc23)cc(Cl)n1` [Example 102, 3-(2-Chloro-6-methyl-4-pyridyl)-2-(3-cyano-2-methyl-phenyl)-N-(2-hydroxy-2-methyl-propyl)pyrazolo[1,5-a]pyrimidine-5-carboxamide], the Ki in assay [1] is 32 nM; in assay [2], > 1000 nM; in assay [3] it was 233 nM; in assay [4] it was 0.5 nM. Also, the results for the IC50 (with human PBMCs; in assay [5]) were 16 nM and 140 nM, respectively.

Consider `Cc1cc(-c2c(-c3cccc(C#N)c3C)nn3ccc(C(=O)NCC(C)(C)O)nc23)cc(C)n1` [Example 103, 2-(3-Cyano-2-methyl-phenyl)-3-(2,6-dimethyl-4-pyridyl)-N-(2-hydroxy-2-methyl-propyl)pyrazolo[1,5-a]pyrimidine-5-carboxamide], for which the Ki was 22 nM in assay [1], > 1000 nM in assay [2], 298 nM in assay [3] and 0.3 nM in assay [4]. The figures for the IC50 (in the assay with human PBMCs; in assay [5]) were 24 nM and 30 nM, respectively.

As for `Cc1cc(-c2c(-c3cccc(C#N)c3C)nn3ccc(C(=O)N[C@H](C)C(C)(C)O)nc23)cc(C)n1` [Example 104, 2-(3-Cyano-2-methyl-phenyl)-3-(2,6-dimethyl-4-pyridyl)-N-[(1R)-2-hydroxy-1,2-dimethyl-propyl]pyrazolo[1,5-a]pyrimidine-5-carboxamide], the Ki was 330 nM in assay [1], > 1000 nM in assay [2], 735 nM in assay [3] and 0.9 nM in assay [4]. For the same compound, the IC50 in the assay on human PBMCs came out at 10 nM; in assay [5] it was 190 nM.

Consider `Cc1cc(-c2c(-c3cccc(C#N)c3C)nn3ccc(C(=O)N[C@@H](C)C(C)(C)O)nc23)cc(C)n1` [Example 104.1, 2-(3-Cyano-2-methyl-phenyl)-3-(2,6-dimethyl-4-pyridyl)-N-[(1S)-2-hydroxy-1,2-dimethyl-propyl]pyrazolo[1,5-a]pyrimidine-5-carboxamide], for which the Ki in assay [1] was 111 nM; in assay [2], > 1000 nM; in assay [3] it was 398 nM; in assay [4], 1.2 nM. The IC50 in the assay with human PBMCs is 4 nM; in assay [5] it was 30 nM.
